Source: patent publication US4468511A, “C-20- And C-23-Modified macrolide derivatives” (Eli Lilly and Company, priority 1983, dated 1984)
In brackets after ≈: the same amount, converted by molar mass. Like-named read-outs stand apart in the source and are kept apart here.

Assays:
Escherichia coli EC14 = experiment: MIC, standard agar-dilution assay; assay type: cell-based; details: agar-dilution; Escherichia coli EC14; read-out: MIC
Protocol: (§1) Certain of the derivatives are active against some gram-negative bacteria, such as Pasteurella species. The MIC's in Table II were determined by standard agar-dilution assays. The MIC's in Table III were obtained using a conventional broth-dilution microtiter test.

Escherichia coli TEM = experiment: MIC, standard agar-dilution assay; assay type: cell-based; details: agar-dilution; Escherichia coli TEM; read-out: MIC
Summary of the method: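 Minimum inhibitory concentrations against Escherichia coli were measured with a standard agar-dilution method. The result for each derivative is the lowest concentration that inhibits bacterial growth, given in ug/mL.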

[1] = system: Klebsiella pneumoniae KAE; experiment: MIC, standard agar-dilution assay; assay type: cell-based; details: agar-dilution; Klebsiella pneumoniae KAE; read-out: MIC
Summary of the method: (§2)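 Method depends on organism. Klebsiella pneumoniae was assayed on agar. Pasteurella spp. and Mycoplasma gallisepticum were assayed in broth microtiter dilution.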

[2] = system: Klebsiella pneumoniae X26; experiment: MIC, standard agar-dilution assay; assay type: cell-based; details: agar-dilution; Klebsiella pneumoniae X26; read-out: MIC
Summary of the method: (§3)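 MICs for the two Pasteurella strains and the Mycoplasma strain were read from a broth-dilution microtiter test. The Klebsiella strain was tested on agar instead.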

[3] = system: Staphylococcus aureus V41; experiment: MIC, standard agar-dilution assay; assay type: cell-based
Protocol: as §1

[4] = system: Staphylococcus aureus X1.1; experiment: MIC, standard agar-dilution assay; assay type: cell-based; details: Staphylococcus aureus, X1.1
Summary of the method: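 Minimum inhibitory concentration against Staphylococcus aureus strain X1.1 was measured with a standard agar-dilution method. The result is reported as the MIC in ug/mL, i.e. the lowest compound concentration in agar that prevents visible growth of this organism.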

[5] = system: Streptococcus Group D X66; experiment: MIC, standard agar-dilution assay; assay type: cell-based
Protocol: as §1

[6] = system: Streptococcus pneumoniae Park I; experiment: MIC, standard agar-dilution assay; assay type: cell-based
Protocol: as §1

[7] = system: Streptococcus pyogenes 9960; experiment: MIC, standard agar-dilution assay; assay type: cell-based; details: agar-dilution, Streptococcus 9960, read-out: MIC
Protocol: as §1

[8] = system: Streptococcus pyogenes C203; experiment: MIC, standard agar-dilution assay; assay type: cell-based
Protocol: as §1

[9] = system: Haemophilus influenzae 76; experiment: MIC, standard agar-dilution assay; assay type: cell-based; details: Haemophilus influenzae, 76
Protocol: (§4) The MIC's in Table II were determined by standard agar-dilution assays. The MIC's in Table III were obtained using a conventional broth-dilution microtiter test.

[10] = system: Haemophilus influenzae C.L.; experiment: MIC, standard agar-dilution assay; assay type: cell-based
Protocol: as §4

[11] = system: Staphylococcus aureus X400; experiment: MIC, standard agar-dilution assay; assay type: cell-based
Protocol: as §4

[12] = system: Staphylococcus epidermidis EPI2; experiment: MIC, standard agar-dilution assay; assay type: cell-based; details: agar-dilution; Staphylococcus epidermidis EPI2; read-out: MIC
Protocol: as §4

[13] = system: Staphylococcus aureus S13E; experiment: microbe, parasite or virus in culture; assay type: cell-based
Protocol: as §4

[14] = system: Staphylococcus epidermidis EPI1; experiment: microbe, parasite or virus in culture; assay type: cell-based; details: Staphylococcus epidermidis, EPI1
Protocol: as §4

[15] = system: Mycoplasma gallisepticum 34159; experiment: MIC, conventional broth-dilution microtiter test; assay type: cell-based; details: Mycoplasmoides gallisepticum; broth-dilution microtiter; Mycoplasma gallisepticum 34159, Resistant strain; read-out: MIC
Summary of the method: as §2

[16] = system: Mycoplasma gallisepticum 41313; experiment: MIC, conventional broth-dilution microtiter test; assay type: cell-based; details: Mycoplasmoides gallisepticum; broth-dilution microtiter; Mycoplasma gallisepticum 41313, Resistant strain; read-out: MIC
Summary of the method: as §2

Mycoplasma gallisepticum = experiment: MIC, conventional broth-dilution microtiter test; assay type: cell-based; details: Mycoplasmoides gallisepticum
Summary of the method: as §2

Mycoplasma hyorhinis = experiment: MIC, conventional broth-dilution microtiter test; assay type: cell-based; details: broth-dilution microtiter; Mycoplasma hyorhinis; read-out: MIC
Summary of the method: as §3

Mycoplasma synoviae = experiment: MIC, conventional broth-dilution microtiter test; assay type: cell-based; details: Mycoplasmopsis synoviae
Summary of the method: as §3

[17] = system: Pasteurella hemolytica 22C; experiment: MIC, conventional broth-dilution microtiter test; assay type: cell-based; details: broth-dilution microtiter; Pasteurella hemolytica 22C; read-out: MIC
Summary of the method: as §2

[18] = system: Pasteurella hemolytica 23C; experiment: MIC, conventional broth-dilution microtiter test; assay type: cell-based; details: broth-dilution microtiter; Pasteurella hemolytica 23C; read-out: MIC
Summary of the method: as §2

[19] = system: Pasteurella hemolytica 41D; experiment: MIC, conventional broth-dilution microtiter test; assay type: cell-based; details: broth-dilution microtiter; Pasteurella hemolytica 41D; read-out: MIC
Summary of the method: as §2

[20] = system: Pasteurella multocida 17E; experiment: MIC, conventional broth-dilution microtiter test; assay type: cell-based; details: broth-dilution microtiter; Pasteurella multocida 17E, Bovine isolate; read-out: MIC
Summary of the method: as §2

[21] = system: Pasteurella multocida 22A; experiment: MIC, conventional broth-dilution microtiter test; assay type: cell-based
Summary of the method: as §2

[22] = system: Pasteurella multocida 40G; experiment: MIC, conventional broth-dilution microtiter test; assay type: cell-based
Summary of the method: as §2

[23] = system: Pasteurella multocida 60A; experiment: MIC, conventional broth-dilution microtiter test; assay type: cell-based
Summary of the method: as §2

[24] = system: Pasteurella multocida 68C; experiment: MIC, conventional broth-dilution microtiter test; assay type: cell-based
Summary of the method: as §2

Staphylococcus aureus = experiment: MIC, conventional broth-dilution microtiter test; assay type: cell-based
Protocol: as §1

Streptococcus sp. 80 = experiment: MIC, conventional broth-dilution microtiter test; assay type: cell-based
Protocol: as §1

[25] = system: Streptococcus pyogenes C203; experiment: Protection of mice experimentally infected with S. pyogenes C203; assay type: in vivo
Protocol: Some of the derivatives of this invention have shown in vivo antimicrobial activity against experimentally-induced infections in laboratory animals. When two doses of test compound were administered to mice experimentally infected with S. pyogenes C203, the activity observed was measured as an ED50 value [effective dose in mg/kg to protect 50% of the test animals: see Warren Wick, et al., J. Bacteriol. 81, 233-235 (1961)].

Pasteurella multocida = experiment: Pasteurella infection in one-day old chicks; assay type: in vivo; details: subcutaneous, 30 mg/kg × 2, 1 and 4 hours post-challenge
Protocol: Certain of the formula 1 compounds of this invention have also shown in vivo activity against infections induced by gram-negative bacteria. Table V summarizes the results of tests in which illustrative compounds were evaluated against a Pasteurella infection in one-day old chicks. The compounds were administered parenterally after challenge of the chicks with Pasteurella multocida (0.1 ml of a 10^-4 dilution of a twenty-hour tryptose broth culture of an avian P. multocida given subcutaneously). In these tests, unless indicated otherwise, all non-medicated infected chicks died within 24 hours of Pasteurella challenge. In the tests summarized in Table V, the compounds were administered by subcutaneous injection at a dosage of 30 mg/kg, 1 and 4 hours post-challenge of the chicks with P. multocida.

[26] = C203, sc, mice, subcutaneous, mg/kg × 2, doses given 1 and 4 hours postinfection, read-out: ED50 Subcutaneous

`CCC1CC(C)C(=O)C=CC(C)=CC(CN2CCC(O)CC2)C(CC)OC(=O)CC(O)C(C)C1OC1OC(C)C(O)C(N(C)C)C1O` (centres unmarked) [Compound 45, 23-(4-Hydroxypiperidino)-20,23-dideoxy-20-dihydro-OMT] showed an MIC (Escherichia coli EC14) greater than 128 µg/mL, an MIC (Escherichia coli TEM) greater than 128 µg/mL and an MIC [1] greater than 128 µg/mL. It also gave an MIC [2] of 16 µg/mL (≈ 24 µM), an MIC ([3]; agar-dilution, Staphylococcus aureus V41, Penicillin-resistant strain, read-out: MIC) of 16 µg/mL (≈ 24 µM) and an MIC [4] of 8 µg/mL (≈ 12 µM). It also gave an MIC [5] of 64 µg/mL (≈ 96 µM), an MIC ([6]; agar-dilution, Streptococcus pneumoniae Park I, read-out: MIC) of 2 µg/mL (≈ 3 µM) and an MIC [7] of 128 µg/mL (≈ 192 µM). The MIC ([8]; agar-dilution, Streptococcus pyogenes C203, read-out: MIC) was 32 µg/mL (≈ 48 µM), the MIC [9] was 64 µg/mL (≈ 96 µM) and the MIC ([10]; agar-dilution, Haemophilus influenzae C.L., Ampicillin-sensitive strain, read-out: MIC) was 32 µg/mL (≈ 48 µM). It also gave an MIC ([11]; agar-dilution, Staphylococcus aureus X400, Methicillin-resistant strain, read-out: MIC) of 32 µg/mL (≈ 48 µM), an MIC [12] of 2 µg/mL (≈ 3 µM) and an MIC [13] of 8 µg/mL (≈ 12 µM). For the same molecule, the MIC [14] was 8 µg/mL (≈ 12 µM), the MIC [15] was greater than 50 µg/mL and the MIC [16] was 50 µg/mL (≈ 75 µM). For the same molecule, the MIC (Mycoplasma gallisepticum; broth-dilution microtiter, Mycoplasma gallisepticum, read-out: MIC) was 6.25 µg/mL (≈ 9.37 µM), the MIC (Mycoplasma hyorhinis) was greater than 50 µg/mL and the MIC (Mycoplasma synoviae) was 12.5 µg/mL (≈ 18.7 µM). It also gave an MIC [17] of 25 µg/mL (≈ 37.5 µM), an MIC [18] of 25 µg/mL (≈ 37.5 µM) and an MIC [19] of 25 µg/mL (≈ 37.5 µM). For the same molecule, the MIC [20] was 25 µg/mL (≈ 37.5 µM), the MIC ([21]; Pasteurella multocida, 22A) was 12.5 µg/mL (≈ 18.7 µM) and the MIC ([22]; Pasteurella multocida, 40G) was 12.5 µg/mL (≈ 18.7 µM). For the same molecule, the MIC ([23]; Pasteurella multocida, 60A) was 12.5 µg/mL (≈ 18.7 µM), the MIC ([24]; Pasteurella multocida, 68C) was 12.5 µg/mL (≈ 18.7 µM) and the MIC (Staphylococcus aureus) was 12.5 µg/mL (≈ 18.7 µM). It also gave an MIC (Streptococcus sp. 80; broth-dilution microtiter, Streptococcus sp. 80, read-out: MIC) of 1.56 µg/mL (≈ 2.34 µM), an ED50 ([25]; C203, po, read-out: ED50 Oral) greater than 100 mg/kg and an ED50 [25, 26] greater than 10 mg/kg. For the same molecule, the “Number of Deaths/Number Treated” value (Pasteurella multocida) was 10/10.

`CCC1CC(C)C(=O)C=CC(C)=CC(COc2cccnc2)C(CC)OC(=O)CC(O)C(C)C1OC1OC(C)C(O)C(N(C)C)C1O` (centres unmarked) [Compound 46, 23-O-(3-Pyridyl)-20-deoxy-20-dihydro-OMT] showed an MIC (Escherichia coli EC14) greater than 128 µg/mL, an MIC (Escherichia coli TEM) of 128 µg/mL (≈ 194 µM) and an MIC [1] greater than 128 µg/mL. It also gave an MIC [2] of 4 µg/mL (≈ 6.05 µM), an MIC ([3]; Staphylococcus aureus, V41) of 0.5 µg/mL (≈ 0.757 µM) and an MIC [4] of 1 µg/mL (≈ 1.51 µM). The MIC [5] was 2 µg/mL (≈ 3.03 µM), the MIC ([6]; Streptococcus pneumoniae) was 0.5 µg/mL (≈ 0.757 µM) and the MIC [7] was 4 µg/mL (≈ 6.05 µM). For the same molecule, the MIC ([8]; Streptococcus pyogenes, C203) was 2 µg/mL (≈ 3.03 µM), the MIC [9] was 16 µg/mL (≈ 24.2 µM) and the MIC ([10]; Haemophilus influenzae) was 16 µg/mL (≈ 24.2 µM). It also gave an MIC ([11]; Staphylococcus aureus, X400) of 2 µg/mL (≈ 3.03 µM), an MIC [12] of 0.25 µg/mL (≈ 0.378 µM) and an MIC [13] of 1 µg/mL (≈ 1.51 µM). For the same molecule, the MIC [14] was 1 µg/mL (≈ 1.51 µM), the MIC [15] was 50 µg/mL (≈ 75.7 µM) and the MIC [16] was 50 µg/mL (≈ 75.7 µM). It also gave an MIC (Mycoplasma gallisepticum) of 1.56 µg/mL (≈ 2.36 µM), an MIC (Mycoplasma hyorhinis) of 25 µg/mL (≈ 37.8 µM) and an MIC (Mycoplasma synoviae; broth-dilution microtiter, Mycoplasma synoviae, read-out: MIC) of 6.25 µg/mL (≈ 9.46 µM). For the same molecule, the MIC [17] was 50 µg/mL (≈ 75.7 µM), the MIC [18] was 50 µg/mL (≈ 75.7 µM) and the MIC [19] was 25 µg/mL (≈ 37.8 µM). The MIC [20] was 12.5 µg/mL (≈ 18.9 µM), the MIC ([21]; broth-dilution microtiter, Pasteurella multocida 22A, read-out: MIC) was 12.5 µg/mL (≈ 18.9 µM) and the MIC ([22]; broth-dilution microtiter, Pasteurella multocida 40G, read-out: MIC) was 12.5 µg/mL (≈ 18.9 µM). It also gave an MIC ([23]; broth-dilution microtiter, Pasteurella multocida 60A, Avian isolate, read-out: MIC) of 12.5 µg/mL (≈ 18.9 µM), an MIC ([24]; broth-dilution microtiter, Pasteurella multocida 68C, read-out: MIC) of 6.25 µg/mL (≈ 9.46 µM) and an MIC (Staphylococcus aureus) of 1.56 µg/mL (≈ 2.36 µM). For the same molecule, the MIC (Streptococcus sp. 80; Streptococcus, SP.80) was 3.12 µg/mL (≈ 4.72 µM), the ED50 ([25]; C203, po, read-out: ED50 Oral) was greater than 100 mg/kg and the ED50 [25, 26] was greater than 10 mg/kg. For the same molecule, the “Number of Deaths/Number Treated” value (Pasteurella multocida) was 10/10.
